Experimental findings from article PMC5438364, “A broad-spectrum bactericidal lipopeptide with anti-biofilm properties” (Scientific Reports, 2017) are described below.

The test system of one assay is E. coli AG100A (ΔacrAB). The format is cell-based, Escherichia coli. Particulars: efflux deletion-mutant AG100A. An excerpt: (§1) Gram-negative bacteria tested were: ATCC strains Escherichia coli 25922, 43894, Pseudomonas aeruginosa 27853, 9027, Acinetobacter baumannii 19606, A. caloaceticus 31299, Salmonella Typhimurium 14028, Fusobacterium nucleatum 23726, Porphyromonas gingivalis 53977, clinical isolates E. coli 14182, 14384, U-16327, U-16329, P. aeruginosa 1278, Klebsiella pneumoniae 1287, K2–224, C2, A. baumannii 1279, 1280, 1281, F. nucleatum PK 1594, the engineered E. coli ML-35p and the isogenic K-12 pair AG100, AG100a (ΔacrAB). Dental related bacteria (generous gift of Prof. Doron Steinberg and Gilad Bachrach from the Hebrew University of Jerusalem) appear in bold characters.
(§2) Minimal inhibitory concentration (MIC) was determined using the microdilution assay. Mid-log-phase bacteria at 5 × 10^5 CFU/ml were incubated in a 96-well plate with serial two-fold dilutions of the tested compound for 18–24 hr at 37 °C (final volume of 200 µl). O.D. at 620 nm was measured (Synergy HT, BioTek Instruments, Winooski, VT, USA), and the MIC was determined as the lowest concentration for which no increase in O.D. was detected.

For another assay, the system named is E. coli AG100. It is filed as cell-based, Escherichia coli. Particulars: wild type AG100.
Excerpt: as §1, §2

Another assay concerns GPB and GNB. The assay is described as follows: Effect observed at low concentrations, analog series. The format is cell-based. Particulars: summary of this and previous studies. The procedure: Table 2 Modulating biophysical properties of a core sequence by conjugating an N-terminal acyl. | column: Effect observed at low concentrations (<3 µM)
The subject of the next assay is S. mutans. The assay is described as follows: microbe, parasite or virus in culture. It is filed as cell-based, Streptococcus mutans. As for the experimental part:
(§3) Staphylococci, Bacilli, Escherichia, Pseudomonas, Acinetobacter, Salmonella and Klebsiella species were grown in Luria Bertani broth (LB; 5 gr/l NaCl, 5 gr/l yeast extract, 10 gr/l tryptone). Enterococci and E. coli ML-35p were grown in Tryptic Soy Broth (TSB). Listeria and Streptococci were grown in Brain Heart Infusion (BHI). All bacteria were grown over-night at 37 °C with shaking. S. mutans 35668 plated on BHI agar for enumeration was grown for 48 hr. S. mutans UA159 was grown in 5% CO2 enriched atmosphere. Fusobacterium and Porphyromonas were grown in Wilkins-Chalgren growth medium and an anaerobic atmosphere.
as §2

For assay [1], the system named is cultivable oral microflora. The assay can be described thus: Bacterial killing in whole human saliva. The settings on record: within two minutes of exposure, 37 °C. The format is cell-based. The procedure:
Bactericidal kinetics in saliva was assessed as follows. Whole saliva was pooled from two-three healthy volunteers at a time, after obtaining their informed consent. To test for specific activity against S. mutans, saliva was centrifuged for 5 min at 15,000 g and 4 °C, and the supernatant was spiked with 1 × 10^7 CFU/ml of mid-log-phase S. mutans 35668. Otherwise, activity against natural oral microflora was also performed on whole saliva. Saliva was mixed with the tested compound, incubated at 37 °C with shaking, and aliquots were taken at t = 0, 2, 5 and 10 min. Aliquots were subjected to serial 10-fold dilutions in saline and plated on BHI agar for enumeration.

For a further assay, the system named is Fusobacterium. The format is cell-based, Fusobacterium nucleatum. Particulars: 48 h.
Excerpt: as §1
Staphylococci, Bacilli, Escherichia, Pseudomonas, Acinetobacter, Salmonella and Klebsiella species were grown in Luria Bertani broth (LB; 5 gr/l NaCl, 5 gr/l yeast extract, 10 gr/l tryptone). Enterococci and E. coli ML-35p were grown in Tryptic Soy Broth (TSB). Listeria and Streptococci were grown in Brain Heart Infusion (BHI). All bacteria were grown over-night at 37 °C with shaking. S. mutans 35668 plated on BHI agar for enumeration was grown for 48 hr. […]
Minimal inhibitory concentration (MIC) was determined using the microdilution assay. […] O.D. at 620 nm was measured (Synergy HT, BioTek Instruments, Winooski, VT, USA), and the MIC was determined as the lowest concentration for which no increase in O.D. was detected.

Assay [2] deals with E. coli ML-35p. The assay is described as follows: Bactericidal kinetics (time-kill). It is filed as cell-based, Escherichia coli. The settings on record: within 2 hours exposure at ≥MIC; 5 × 10^5 CFU/ml, 37 °C. The procedure: Bactericidal kinetics was assessed by incubating 5 × 10^5 CFU/ml of mid-log-phase bacteria with the OAK for 3 hr at 37 °C with shaking. Aliquots were taken at t = 0, 0.5, 1, 2 and 3 hr, subjected to serial 10-fold dilutions in saline (NaCl = 0.85%) and plated for enumeration after 24–48 hr incubation at 37 °C.

The test system of the next assay is E. coli 25922. It is filed as cell-based, Escherichia coli. As for the experimental part: as §2
In assay [3] the test system is Gram-positive bacteria (GPB). The settings on record: 48 h.
For assay [4], the system named is E. coli ML-35p. The assay is described as follows: Outer and cytoplasmic membrane permeabilization (nitrocefin, ONPG, EtBr). The settings on record: ONPG and ethidium bromide (CM), 30 min, 37 °C. It is filed as cell-based, Escherichia coli. As for the experimental part: Cytoplasmic membrane permeation to ethidium bromide (EtBr) was evaluated as follows: Mid-log-phase bacteria at 1 × 10^8 CFU/ml were centrifuged for 5 min at 15,000 g. Pellet was washed twice with PBS containing 0.5% glucose (pH = 7.4), suspended in the same buffer and incubated for 10 min at 37 °C with shaking. 180 µl of the bacterial suspension were mixed in a 96-well plate with 25 µl of the tested compound and EtBr (EtBr final concentration = 1 µg/ml) and fluorescence was recorded immediately (excitation: 535 nm, emission: 590 nm) for up to 30 min at 37 °C with shaking (Synergy HT, BioTek Instruments, Winooski, VT, USA).
Outer and cytoplasmic membrane permeation in Gram-negative bacteria was assessed using the engineered E. coli ML-35p by monitoring the chromogenic hydrolysis of two indicators: ortho-nitrophenyl-β-galactoside (ONPG) and nitrocefin. Mid-log-phase E. coli ML-35p were centrifuged for 5 min at 15,000 g and the supernatant was removed. Pellet was washed three times with sodium phosphate buffer (SPB; 10 mM NaH2PO4, pH = 7) and suspended in the same buffer (O.D. at 620 nm = 1). Bacteria were then 10-fold diluted into SPB containing 3% TSB. […] Hydrolysis of ONPG and nitrocefin was monitored immediately by recording the absorbance at 420 nm and 486 nm respectively, for 30 min at 37 °C with shaking (Synergy HT, BioTek Instruments, Winooski, VT, USA).

The next assay relates to Listeria. The format is cell-based. As for the experimental part:
as §3, §2

The test system of another assay is Staphylococci. The format is cell-based. The procedure: as §3, §2
The subject of the next assay is Enterococci. It is filed as cell-based. The procedure: as §3, §2
The subject of the next assay is Streptococci. It is filed as cell-based. As for the experimental part:
as §3, §2

Converted amounts (≈) assume the structure as drawn. Where a SMILES comes first, the peptide text is derived from it. [ ]: non-standard residue; d: D form. The star is where a group is joined. Myristoyl = CCCCCCCCCCCCCC(=O)*; 12Ado = NCCCCCCCCCCCC(=O)O

By MIC50 is commonly meant the lowest concentration that inhibits either 50% of growth or 50% of the strains tested, depending on the study. A high value points to lower susceptibility. With `CCCCCCCCCCCCCC(=O)N[C@@H](CCCCN)C(=O)N[C@@H](CCCCN)C(=O)NCCCCCCCCCCCC(=O)N[C@@H](CCCCN)C(N)=O` [C14KKc12K] (Myristoyl-KK[12Ado]K-NH2), the MIC with E. coli AG100A (ΔacrAB) is listed as 3 µM; in the assay on E. coli AG100 it was 3 µM; with S. mutans, 0.78 µM; in the assay on E. coli 25922 it was 6 µM. Moreover, the “Effect observed at low concentrations (<3 µM)” value with GPB and GNB is “High efficacy in membranes disruption leading to a bactericidal mode of action in both GPB & GNB”. The “reduction of viability of cultivable oral microflora” value in [1] is given as more than 99%. Also, the MIC range in the assay on Fusobacterium was 6.25 µM; in the assay with Listeria, 3.12 µM; in the assay on Staphylococci it was 1.56 to 3.12 µM; in the assay on Enterococci, 3.12 to 6.25 µM; with Streptococci it was 0.78 to 3.12 µM. The compound further gave a reduction of viability with E. coli ML-35p [2] of more than 2 log-unit. This compound also returned an MIC50 in [3] of 3 µM (≈ 2.43 µg/mL). In addition, the “concentration (MIC value) at which both OM and CM were permeabilized” value with E. coli ML-35p [4] is recorded as 3 µM.
